According to patent US12115202B1, “Method of preventing cadmium-induced liver toxicity using a plant product derived from Achillea millefolium L” (KING FAISAL UNIVERSITY, priority 2024, dated 2024):

Columns and labels:
[1] = tested on: CdCl2-induced hepatic toxicity; assay: Determination of hepatic oxidative stress markers; assay type: in vivo, rat; conditions: rats, CdCl2 vs control, AEO 250 mg/kg + CdCl2 vs CdCl2 group
Procedure: (§1) To study the hepatic protective activity of Achillea millefolium essential oil (AEO) on CdCl2-induced hepatic toxicity, male Wistar rats (weighing, 180 g-200 g) were purchased from the Experimental Animal Research Centre, King Saud University, Riyadh, KSA. The animals were randomly divided into four groups (n=8 per group). For Group I (the Control group), the animals were pre-administered with 0.9% NaCl (physiological saline), 2 hours before the injection of 0.9% NaCl (physiological saline) i.p., daily for 7 days. For Group II (the CdCl2 group), the animals were pre-administered with 0.9% NaCl (physiological saline) 2 hours before injection of 6.5 mg/kg CdCl2 i.p. daily for 7 days. For Group III (the AEO group), the animals were pre-administered with 250 mg/kg AEO 2 hours before the injection of 0.9% NaCl (physiological saline) i.p. daily for 7 days. For Group IV (the AEO+CdCl2 group), the animals were pre-administered with 250 mg/kg AEO 2 hours before the injection of 6.5 mg/kg CdCl2 i.p. daily for 7 days. Twenty-four hours after the last treatment, the animals were killed and the liver was quickly removed and weighed.
(§2) Parts of the frozen liver samples (50 mg) were homogenized in 1 ml ice-cold phosphate buffer saline containing a protease/phosphatase inhibitor cocktail. The homogenates were centrifuged at 10,000×g for 15 minutes at 4° C. and the supernatants were isolated to new tubes. The tubes were kept at −20° C. until further biochemical analysis.
Lipid peroxidation was assessed according to the amount of malondialdehyde (MDA). The activities of catalase, superoxide dismutase (SOD) glutathione peroxidase (GSH-Px) and glutathione reductase (GSH-R) were estimated using kits, according to manufacturer protocol.

[2] = Determination of Cd concentration in liver tissue; assay type: in vivo, rat
Procedure: as §1
Cd concentration was measured using conventional methods. Liver tissue was weighed and dried in an oven for 4 hours at 250° C. […] Cd concentrations were determined by spectrophotometry at […]. The Cd concentrations are expressed as μg/g of wet liver tissue.

[3] = Changes in body weight of rats in CdCl2-induced hepatic toxicity study; assay type: in vivo, rat; conditions: male Wistar rats, n=8 per group; AEO 250 mg/kg 2 hours before saline or CdCl2 6.5 mg/kg i.p., daily for 7 days; mean ± SD
Procedure: as §1

[4] = tested on: CdCl2-induced hepatic toxicity; assay: Determination of liver inflammatory markers; assay type: in vivo, rat; conditions: rats, CdCl2 vs control, AEO 250 mg/kg + CdCl2 vs CdCl2 group
Procedure: as §1, §2
Inflammation markers including tumor necrosis factor alpha (TNF-α), interleukin 1β (IL-1β), intracellular adhesion molecule-1 (ICAM-1) and myeloperoxidase (MPO) were measured according to the manufacturer protocol of the Kit.

[5] = tested on: CdCl2-induced hepatic toxicity; assay: Liver function test (serum enzymes, ELISA kits); assay type: in vivo, rat; conditions: rats, Cd vs control group, AEO 250 mg/kg + CdCl2 vs CdCl2 group
Procedure: as §1
The activities of alanine transaminase (ALT), aspartate aminotransferase (AST), alkaline phosphatase (ALP), lactate dehydrogenase (LDH) enzymes and γ-glutamyltransferase1 (γGTT1) were determined using ELISA kits.

[6] = tested on: Nrf2/HO-1/NQO1; assay: Hepatic Nrf2 pathway gene expression (qPCR); assay type: in vivo; conditions: rat liver, qPCR relative to β-actin, Cd vs control, AEO + CdCl2 vs CdCl2 group
Procedure: as §1, with “Twenty-four hours after the last treatment, the animals were killed and the liver was quickly removed and weighed.” left out
Gene expression for the Nrf2 pathway, including nuclear factor erythroid 2-related factor 2 (Nrf2), hemeoxygenase-1 (HO-1), NAD(P)H: quinone oxidoreductase 1 (NQO1) and Nuclear factor kappa B (NFκB) were quantified via real-time PCR (qPCR) consuming the primers' sequences, shown in Table 1, in agreement with the method described elsewhere. Briefly, RNA was isolated and purified using a Trizol reagent kit (Invitrogen, Carlsbad, CA, USA), then a reverse transcription polymerase chain reaction (RT-PCR) kit (TaKaRa, Kusatsu, Shiga, Japan) following the manufacturer's procedures. qPCR was applied using a SYBR ExScript RT-PCR kit, and quantification examinations were accomplished via an Opticon-2 Real-4 time PCR reactor (MJ Research, Capital Court, Reno, NV, USA). qPCR results were obtained using Step PE Applied Biosystems (Waltham, MA, USA) software. Relative gene expression data were calculated as mentioned earlier by the Livak and Schmittgen method (2-ΔΔCq2) and presented as a fold change. Target gene expressions were assessed and related to the reference gene (β-actin).

[7] = tested on: NFκB; assay: Hepatic NFκB gene expression (qPCR); assay type: in vivo; conditions: rat liver, qPCR relative to β-actin; Cd vs control; AEO with Cd vs Cd alone group; FIG. 3D
Procedure: To study the hepatic protective activity of Achillea millefolium essential oil (AEO) on CdCl2-induced hepatic toxicity, male Wistar rats (weighing, 180 g-200 g) were purchased from the Experimental Animal Research Centre, King Saud University, Riyadh, KSA. The animals were randomly divided into four groups (n=8 per group). For Group I (the Control group), the animals were pre-administered with 0.9% NaCl (physiological saline), 2 hours before the injection of 0.9% NaCl (physiological saline) i.p., daily for 7 days. For Group II (the CdCl2 group), the animals were pre-administered with 0.9% NaCl (physiological saline) 2 hours before injection of 6.5 mg/kg CdCl2 i.p. daily for 7 days. […]
Gene expression for the Nrf2 pathway, including nuclear factor erythroid 2-related factor 2 (Nrf2), hemeoxygenase-1 (HO-1), NAD(P)H: quinone oxidoreductase 1 (NQO1) and Nuclear factor kappa B (NFκB) were quantified via real-time PCR (qPCR) consuming the primers' sequences, shown in Table 1, in agreement with the method described elsewhere. […] Relative gene expression data were calculated as mentioned earlier by the Livak and Schmittgen method (2-ΔΔCq2) and presented as a fold change. Target gene expressions were assessed and related to the reference gene (β-actin).

[Cl][Cd][Cl] [CdCl2]
hepatic MDA level (lipid peroxidation) ([1]; FIG. 2A): augmented
hepatic GSH-Px activity ([1]; FIG. 2B): considerably declined
hepatic GSH-R activity ([1]; FIG. 2C): considerably declined
hepatic SOD activity ([1]; FIG. 2D): considerably declined
hepatic CAT (catalase) activity ([1]; FIG. 2E): considerably declined
Cd concentration (μg/g liver tissue) ([2]; male Wistar rats, AEO 250 mg/kg 2 hours before saline or CdCl2 6.5 mg/kg i.p., daily for 7 days, liver 24 h after last treatment, mean ± SD): 0.74 ± 0.023 μg/g liver tissue
Concentration of Cd in hepatic tissue (change) ([2]; rats, CdCl2 vs control group, AEO prior to CdCl2 vs CdCl2 group, p<0.05): significantly increased
Final weight [3]: 190.84 ± 4.41
TNF-α hepatic level ([4]; FIG. 4A): augmented
IL-1β hepatic level ([4]; FIG. 4B): augmented
MPO hepatic level ([4]; FIG. 4C): augmented
ICAM-1 hepatic level ([4]; FIG. 4D): augmented
serum ALT level ([5]; FIG. 1A): increase
serum AST level ([5]; FIG. 1B): increase
serum ALP level ([5]; FIG. 1C): increase
serum LDH level ([5]; FIG. 1D): increase
serum γGTT1 level ([5]; FIG. 1E): increase
Nrf2 mRNA expression level ([6]; FIG. 3A): decreased
HO-1 mRNA expression level ([6]; FIG. 3B): decreased
NQO1 mRNA expression level ([6]; FIG. 3C): decreased
NFκB mRNA expression level [7]: significantly augmented
